Columns and labels:
human GLP-1 receptor = molecular target: T1, human GLP-1 receptor (Homo sapiens, UniProt P43220); test: DiscoveRx LeadHunter cellular assay, cAMP stimulation, GLP-1 receptor in CHO cells; assay type: cell-based; conditions: human GLP-1 receptor in CHO cells (DiscoveRx); read-out: EC50 cAMP GLP-1 R
T1 construct: host or cells: CHO cells
Procedure: (§1) A further series of cellular assays was carried out with standard cellular assays (DiscoveRx, LeadHunter assays) using readout of cAMP stimulation or arrestin activation. Compounds were weighed precisely in an amount of about 1 mg and shipped to DiscoveRx for dilution and assay.

human glucagon receptor = molecular target: T2, human glucagon receptor (Homo sapiens, UniProt P47871); test: DiscoveRx LeadHunter cellular assay, cAMP stimulation, glucagon receptor in CHO cells; assay type: cell-based
T2 construct: host or cells: CHO cells
T2 sequence (P47871 26-477): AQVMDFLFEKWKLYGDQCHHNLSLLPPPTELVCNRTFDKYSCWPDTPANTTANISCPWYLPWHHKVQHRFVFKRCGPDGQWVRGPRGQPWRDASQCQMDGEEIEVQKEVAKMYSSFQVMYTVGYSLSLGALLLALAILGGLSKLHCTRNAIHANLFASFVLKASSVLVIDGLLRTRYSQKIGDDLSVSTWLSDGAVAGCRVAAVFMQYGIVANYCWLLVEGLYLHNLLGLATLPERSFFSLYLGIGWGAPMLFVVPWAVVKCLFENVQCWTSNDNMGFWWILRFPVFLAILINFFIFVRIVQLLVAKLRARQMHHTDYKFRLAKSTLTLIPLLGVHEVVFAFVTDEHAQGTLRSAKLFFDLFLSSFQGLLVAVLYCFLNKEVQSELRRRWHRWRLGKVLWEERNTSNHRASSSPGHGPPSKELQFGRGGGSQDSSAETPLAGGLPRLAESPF
Procedure: as §1

T1 sequence (P43220 24-463): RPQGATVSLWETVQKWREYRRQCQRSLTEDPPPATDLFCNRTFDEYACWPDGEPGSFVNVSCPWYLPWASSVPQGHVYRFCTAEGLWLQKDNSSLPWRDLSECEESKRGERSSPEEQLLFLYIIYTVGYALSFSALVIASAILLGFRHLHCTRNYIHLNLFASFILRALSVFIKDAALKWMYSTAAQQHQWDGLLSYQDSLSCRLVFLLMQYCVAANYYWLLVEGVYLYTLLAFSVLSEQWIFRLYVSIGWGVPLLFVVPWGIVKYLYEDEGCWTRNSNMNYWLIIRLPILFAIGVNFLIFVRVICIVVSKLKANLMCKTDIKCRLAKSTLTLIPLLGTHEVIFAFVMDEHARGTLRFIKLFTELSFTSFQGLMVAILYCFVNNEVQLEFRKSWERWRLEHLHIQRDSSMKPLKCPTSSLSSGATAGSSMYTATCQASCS

Structure (SMILES)	EC50 (human GLP-1 receptor)	EC50 (human glucagon receptor)
CCCCCCCCCCCCO[C@@H]1O[C@H](C(=O)NCCCC[C@H](NC(=O)[C@@H](NC(=O)[C@H](Cc2ccccc2)NC(=O)[C@H](CCC(=O)O)NC(=O)[C@@H]2CCCCNC(=O)CC[C@H](NC(=O)[C@H](CC(=O)O)NC(=O)[C@H](CC(C)C)NC(=O)[C@H](Cc3ccc(O)cc3)NC(=O)[C@H](CCCCN)NC(=O)[C@H](CO)NC(=O)[C@H](Cc3ccc(O)cc3)NC(=O)[C@H](CC(=O)O)NC(=O)[C@H](CO)NC(=O)[C@@H](NC(=O)[C@H](Cc3ccccc3)NC(=O)[C@@H](NC(=O)CNC(=O)[C@H](CCC(N)=O)NC(=O)C(C)(C)NC(=O)[C@@H](N)Cc3c[nH]cn3)[C@@H](C)O)[C@@H](C)O)C(=O)N[C@@H](CCC(N)=O)C(=O)N[C@@H](C)C(=O)N[C@@H](C)C(=O)N2)[C@@H](C)CC)C(=O)N[C@@H](Cc2c[nH]c3ccccc23)C(=O)N[C@@H](CC(C)C)C(=O)N[C@@H](CC(C)C)C(=O)N[C@@H](CCC(N)=O)C(=O)N[C@H](C(=O)NCCOCCOCCOCCOCCC(=O)O)[C@@H](C)O)[C@@H](O)[C@H](O)[C@H]1O [EU-A1633]	8 pM	53 pM
CCCCCCCCCCCCCCO[C@@H]1O[C@H](C(=O)NCCCC[C@H](NC(=O)[C@@H](NC(=O)[C@H](Cc2ccccc2)NC(=O)[C@H](CCC(=O)O)NC(=O)[C@@H]2CCCCNC(=O)CC[C@H](NC(=O)[C@H](CC(=O)O)NC(=O)[C@H](CC(C)C)NC(=O)[C@H](Cc3ccc(O)cc3)NC(=O)[C@H](CCCCN)NC(=O)[C@H](CO)NC(=O)[C@H](Cc3ccc(O)cc3)NC(=O)[C@H](CC(=O)O)NC(=O)[C@H](CO)NC(=O)[C@@H](NC(=O)[C@H](Cc3ccccc3)NC(=O)[C@@H](NC(=O)CNC(=O)[C@H](CCC(N)=O)NC(=O)C(C)(C)NC(=O)[C@@H](N)Cc3c[nH]cn3)[C@@H](C)O)[C@@H](C)O)C(=O)N[C@@H](CCC(N)=O)C(=O)N[C@@H](C)C(=O)N[C@@H](C)C(=O)N2)[C@@H](C)CC)C(=O)N[C@@H](Cc2c[nH]c3ccccc23)C(=O)N[C@@H](CC(C)C)C(=O)N[C@@H](CC(C)C)C(=O)N[C@@H](CCC(N)=O)C(=O)N[C@H](C(=O)NCCOCCOCCOCCOCCC(=O)O)[C@@H](C)O)[C@@H](O)[C@H](O)[C@H]1O [EU-A1634]	52 pM	493 pM
CCCCCCCCCCCCCCCCO[C@@H]1O[C@H](C(=O)NCCCC[C@H](NC(=O)[C@@H](NC(=O)[C@H](Cc2ccccc2)NC(=O)[C@H](CCC(=O)O)NC(=O)[C@@H]2CCCCNC(=O)CC[C@H](NC(=O)[C@H](CC(=O)O)NC(=O)[C@H](CC(C)C)NC(=O)[C@H](Cc3ccc(O)cc3)NC(=O)[C@H](CCCCN)NC(=O)[C@H](CO)NC(=O)[C@H](Cc3ccc(O)cc3)NC(=O)[C@H](CC(=O)O)NC(=O)[C@H](CO)NC(=O)[C@@H](NC(=O)[C@H](Cc3ccccc3)NC(=O)[C@@H](NC(=O)CNC(=O)[C@H](CCC(N)=O)NC(=O)C(C)(C)NC(=O)[C@@H](N)Cc3c[nH]cn3)[C@@H](C)O)[C@@H](C)O)C(=O)N[C@@H](CCC(N)=O)C(=O)N[C@@H](C)C(=O)N[C@@H](C)C(=O)N2)[C@@H](C)CC)C(=O)N[C@@H](Cc2c[nH]c3ccccc23)C(=O)N[C@@H](CC(C)C)C(=O)N[C@@H](CC(C)C)C(=O)N[C@@H](CCC(N)=O)C(=O)N[C@H](C(=O)NCCOCCOCCOCCOCCC(=O)O)[C@@H](C)O)[C@@H](O)[C@H](O)[C@H]1O [EU-A1635]	71 pM	1980 pM
CCCCCCCCCCCCO[C@@H]1O[C@H](C(=O)NCCCC[C@H](NC(=O)[C@@H](NC(=O)[C@H](Cc2ccccc2)NC(=O)[C@H](CCC(=O)O)NC(=O)[C@@H]2CCCCNC(=O)CC[C@H](NC(=O)[C@H](CC(=O)O)NC(=O)[C@H](CC(C)C)NC(=O)[C@H](Cc3ccc(O)cc3)NC(=O)[C@H](CCCCN)NC(=O)[C@H](CO)NC(=O)[C@H](Cc3ccc(O)cc3)NC(=O)[C@H](CC(=O)O)NC(=O)[C@H](CO)NC(=O)[C@@H](NC(=O)[C@H](Cc3ccccc3)NC(=O)[C@@H](NC(=O)CNC(=O)[C@H](CCC(N)=O)NC(=O)C(C)(C)NC(=O)[C@@H](N)Cc3c[nH]cn3)[C@@H](C)O)[C@@H](C)O)C(=O)N[C@@H](CCC(N)=O)C(=O)N[C@@H](C)C(=O)N[C@@H](C)C(=O)N2)[C@@H](C)CC)C(=O)N[C@@H](Cc2c[nH]c3ccccc23)C(=O)N[C@@H](CC(C)C)C(=O)N[C@@H](CC(C)C)C(=O)N[C@@H](CCC(N)=O)C(=O)N[C@H](C(=O)NCCOCCOCCOCCOCCOCCOCCOCCOCCC(=O)O)[C@@H](C)O)[C@@H](O)[C@H](O)[C@H]1O [EU-A1645]	29 pM	91 pM
CCCCCCCCCCCCCCO[C@@H]1O[C@H](C(=O)NCCCC[C@H](NC(=O)[C@@H](NC(=O)[C@H](Cc2ccccc2)NC(=O)[C@H](CCC(=O)O)NC(=O)[C@@H]2CCCCNC(=O)CC[C@H](NC(=O)[C@H](CC(=O)O)NC(=O)[C@H](CC(C)C)NC(=O)[C@H](Cc3ccc(O)cc3)NC(=O)[C@H](CCCCN)NC(=O)[C@H](CO)NC(=O)[C@H](Cc3ccc(O)cc3)NC(=O)[C@H](CC(=O)O)NC(=O)[C@H](CO)NC(=O)[C@@H](NC(=O)[C@H](Cc3ccccc3)NC(=O)[C@@H](NC(=O)CNC(=O)[C@H](CCC(N)=O)NC(=O)C(C)(C)NC(=O)[C@@H](N)Cc3c[nH]cn3)[C@@H](C)O)[C@@H](C)O)C(=O)N[C@@H](CCC(N)=O)C(=O)N[C@@H](C)C(=O)N[C@@H](C)C(=O)N2)[C@@H](C)CC)C(=O)N[C@@H](Cc2c[nH]c3ccccc23)C(=O)N[C@@H](CC(C)C)C(=O)N[C@@H](CC(C)C)C(=O)N[C@@H](CCC(N)=O)C(=O)N[C@H](C(=O)NCCOCCOCCOCCOCCOCCOCCOCCOCCC(=O)O)[C@@H](C)O)[C@@H](O)[C@H](O)[C@H]1O [EU-A1646]	29 pM	332 pM
CCCCCCCCCCCCCCCCO[C@@H]1O[C@H](C(=O)NCCCC[C@H](NC(=O)[C@@H](NC(=O)[C@H](Cc2ccccc2)NC(=O)[C@H](CCC(=O)O)NC(=O)[C@@H]2CCCCNC(=O)CC[C@H](NC(=O)[C@H](CC(=O)O)NC(=O)[C@H](CC(C)C)NC(=O)[C@H](Cc3ccc(O)cc3)NC(=O)[C@H](CCCCN)NC(=O)[C@H](CO)NC(=O)[C@H](Cc3ccc(O)cc3)NC(=O)[C@H](CC(=O)O)NC(=O)[C@H](CO)NC(=O)[C@@H](NC(=O)[C@H](Cc3ccccc3)NC(=O)[C@@H](NC(=O)CNC(=O)[C@H](CCC(N)=O)NC(=O)C(C)(C)NC(=O)[C@@H](N)Cc3c[nH]cn3)[C@@H](C)O)[C@@H](C)O)C(=O)N[C@@H](CCC(N)=O)C(=O)N[C@@H](C)C(=O)N[C@@H](C)C(=O)N2)[C@@H](C)CC)C(=O)N[C@@H](Cc2c[nH]c3ccccc23)C(=O)N[C@@H](CC(C)C)C(=O)N[C@@H](CC(C)C)C(=O)N[C@@H](CCC(N)=O)C(=O)N[C@H](C(=O)NCCOCCOCCOCCOCCOCCOCCOCCOCCC(=O)O)[C@@H](C)O)[C@@H](O)[C@H](O)[C@H]1O [EU-A1647]	113 pM	1900 pM
CCCCCCCCO[C@@H]1O[C@H](C(=O)NCCCC[C@H](NC(=O)[C@@H](NC(=O)[C@H](Cc2ccccc2)NC(=O)[C@H](CCC(=O)O)NC(=O)[C@@H]2CCCCNC(=O)CC[C@H](NC(=O)[C@H](CC(=O)O)NC(=O)[C@H](CC(C)C)NC(=O)[C@H](Cc3ccc(O)cc3)NC(=O)[C@H](CCCCN)NC(=O)[C@H](CO)NC(=O)[C@H](Cc3ccc(O)cc3)NC(=O)[C@H](CC(=O)O)NC(=O)[C@H](CO)NC(=O)[C@@H](NC(=O)[C@H](Cc3ccccc3)NC(=O)[C@@H](NC(=O)CNC(=O)[C@H](CCC(N)=O)NC(=O)C(C)(C)NC(=O)[C@@H](N)Cc3c[nH]cn3)[C@@H](C)O)[C@@H](C)O)C(=O)N[C@@H](CCC(N)=O)C(=O)N[C@@H](C)C(=O)N[C@@H](C)C(=O)N2)[C@@H](C)CC)C(=O)N[C@@H](Cc2c[nH]c3ccccc23)C(=O)N[C@@H](CC(C)C)C(=O)N[C@@H](CC(C)C)C(=O)N[C@@H](CCC(N)=O)C(=O)N[C@H](C(=O)O)[C@@H](C)O)[C@@H](O)[C@H](O)[C@H]1O [EU-A1679]	9 pM	140 pM
CCCCCCCCCCO[C@@H]1O[C@H](C(=O)NCCCC[C@H](NC(=O)[C@@H](NC(=O)[C@H](Cc2ccccc2)NC(=O)[C@H](CCC(=O)O)NC(=O)[C@@H]2CCCCNC(=O)CC[C@H](NC(=O)[C@H](CC(=O)O)NC(=O)[C@H](CC(C)C)NC(=O)[C@H](Cc3ccc(O)cc3)NC(=O)[C@H](CCCCN)NC(=O)[C@H](CO)NC(=O)[C@H](Cc3ccc(O)cc3)NC(=O)[C@H](CC(=O)O)NC(=O)[C@H](CO)NC(=O)[C@@H](NC(=O)[C@H](Cc3ccccc3)NC(=O)[C@@H](NC(=O)CNC(=O)[C@H](CCC(N)=O)NC(=O)C(C)(C)NC(=O)[C@@H](N)Cc3c[nH]cn3)[C@@H](C)O)[C@@H](C)O)C(=O)N[C@@H](CCC(N)=O)C(=O)N[C@@H](C)C(=O)N[C@@H](C)C(=O)N2)[C@@H](C)CC)C(=O)N[C@@H](Cc2c[nH]c3ccccc23)C(=O)N[C@@H](CC(C)C)C(=O)N[C@@H](CC(C)C)C(=O)N[C@@H](CCC(N)=O)C(=O)N[C@H](C(=O)O)[C@@H](C)O)[C@@H](O)[C@H](O)[C@H]1O [EU-A1680]	26 pM	114 pM
CCCCCCCCCCCCO[C@@H]1O[C@H](C(=O)NCCCC[C@H](NC(=O)[C@@H](NC(=O)[C@H](Cc2ccccc2)NC(=O)[C@H](CCC(=O)O)NC(=O)[C@@H]2CCCCNC(=O)CC[C@H](NC(=O)[C@H](CC(=O)O)NC(=O)[C@H](CC(C)C)NC(=O)[C@H](Cc3ccc(O)cc3)NC(=O)[C@H](CCCCN)NC(=O)[C@H](CO)NC(=O)[C@H](Cc3ccc(O)cc3)NC(=O)[C@H](CC(=O)O)NC(=O)[C@H](CO)NC(=O)[C@@H](NC(=O)[C@H](Cc3ccccc3)NC(=O)[C@@H](NC(=O)CNC(=O)[C@H](CCC(N)=O)NC(=O)C(C)(C)NC(=O)[C@@H](N)Cc3c[nH]cn3)[C@@H](C)O)[C@@H](C)O)C(=O)N[C@@H](CCC(N)=O)C(=O)N[C@@H](C)C(=O)N[C@@H](C)C(=O)N2)[C@@H](C)CC)C(=O)N[C@@H](Cc2c[nH]c3ccccc23)C(=O)N[C@@H](CC(C)C)C(=O)N[C@@H](CC(C)C)C(=O)N[C@@H](CCC(N)=O)C(=O)N[C@H](C(=O)O)[C@@H](C)O)[C@@H](O)[C@H](O)[C@H]1O [EU-A1681]	9 pM	132 pM

From patent US11541028B2, “Peptide pharmaceuticals for treatment of NASH and other disorders” (Mederis Diabetes LLC, priority 2018, dated 2023)
